23 molecules from patent US20240294531A1, “COVALENT HETEROCYCLES AND USES THEREOF” (Kumquat Biosciences Inc., priority 2022, published 2024) can be followed below.

The IC50 is the concentration that gives 50% inhibition.

In experiment [1] the target is BTK wildtype protein (Homo sapiens (Human), UniProt Q06187). The experiment can be described thus: BTK wildtype HTRF displacement assay. It is filed as binding. As to conditions: 1-hour incubation; read-out: BTK (wt) IC50. Summed up:
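Full-length N-terminal GST-tagged BTK incubated 1 h at room temperature with compound (6 doses, four-fold dilutions from 5 μM top) plus kinase tracer 239 and anti-GST-Tb antibody. Tracer displacement read as TR-FRET 665/620 ratio, background-subtracted using no-protein control. IC50 from four-parameter fit constrained 0–100% inhibition.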

The target in experiment [2] is BTK C481S protein (Homo sapiens (Human), UniProt Q06187, C481S). The experiment can be described thus: BTK C481S HTRF displacement assay. It is filed as binding. As to conditions: 1-hour incubation. Put shortly: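 N-terminal GST-tagged BTK C481S (2-659) incubated 1 hour at room temperature with compound (6 doses, four-fold from 5 μM), 50 nM kinase tracer 239 and anti-GST-Tb antibody. TR-FRET 665/620 ratio, background-subtracted; IC50 from constrained four-parameter fit. KI=IC50/(1+[Tracer]/Kd), tracer Kd 54 nM.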
(TR-FRET usually uses a lanthanide donor and a delayed reading to cut background.)

Each structure is given as a SMILES string. Some results are limits rather than exact numbers.

Chain of BTK C481S protein (Q06187 2-659 C481S): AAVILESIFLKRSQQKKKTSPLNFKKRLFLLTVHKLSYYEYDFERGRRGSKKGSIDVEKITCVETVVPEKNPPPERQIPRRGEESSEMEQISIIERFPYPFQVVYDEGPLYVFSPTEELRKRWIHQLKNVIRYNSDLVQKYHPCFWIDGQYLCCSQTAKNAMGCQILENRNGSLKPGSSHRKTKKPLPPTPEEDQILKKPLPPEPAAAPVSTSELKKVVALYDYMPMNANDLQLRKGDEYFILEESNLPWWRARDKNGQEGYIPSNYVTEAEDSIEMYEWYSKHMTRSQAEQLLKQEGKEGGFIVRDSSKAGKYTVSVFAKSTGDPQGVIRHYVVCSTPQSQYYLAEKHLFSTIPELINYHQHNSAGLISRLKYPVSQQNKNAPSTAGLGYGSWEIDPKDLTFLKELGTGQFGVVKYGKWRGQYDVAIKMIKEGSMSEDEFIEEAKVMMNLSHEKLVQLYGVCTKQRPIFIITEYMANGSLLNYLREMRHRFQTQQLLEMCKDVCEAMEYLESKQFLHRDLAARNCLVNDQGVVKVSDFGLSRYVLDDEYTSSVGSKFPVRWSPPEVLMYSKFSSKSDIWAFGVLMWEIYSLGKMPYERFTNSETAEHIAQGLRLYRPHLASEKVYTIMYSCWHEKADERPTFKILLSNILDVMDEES
Chain of BTK wildtype protein (Q06187 2-659): as the sequence (Q06187 2-659 C481S) above, with S480C counted along it

For `COc1ccc(F)cc1C(=O)NCc1ccc(-c2nn(C(CC(F)F)CN(C)C(=O)n3cncn3)c3ncnc(N)c23)cc1` (stereo not shown) [Compound 257, N-(2-(4-amino-3-(4-((5-fluoro-2-methoxybenzamido)methyl)phenyl)-1H-pyrazolo[3,4-d]pyrimidin-1-yl)-4,4-difluorobutyl)-N-methyl-1H-1,2,4-triazole-1-carboxamide], the IC50 in experiment [1] and in experiment [2] was greater than 1 µM in each case.
Turning to `COc1ccc(C)cc1C(=O)NCc1ccc(-c2nn(C3CCC(N(C)C(=O)n4cncn4)CC3)c3ncnc(N)c23)cc1` (stereo not shown) [Compound 258, N-(4-(4-amino-3-(4-((2-methoxy-5-methylbenzamido)methyl)phenyl)-1H-pyrazolo[3,4-d]pyrimidin-1-yl)cyclohexyl)-N-methyl-1H-1,2,4-triazole-1-carboxamide], the IC50 in experiment [1] and in experiment [2] was no more than 1 µM each time.
As for `Cc1[nH]c2c(C(N)=O)cc(F)c(N3CCCC(N(C)C(=O)n4cncn4)C3)c2c1C` (stereo not shown) [Compound 262, 5-fluoro-2,3-dimethyl-4-(3-(N-methyl-1H-1,2,4-triazole-1-carboxamido)piperidin-1-yl)-1H-indole-7-carboxamide], the IC50 in experiment [1] and in experiment [2] was no more than 1 µM each time.
As for `CN(C(=O)n1cncn1)C1CCCCC1n1nc(-c2ccc(Oc3ccccc3)cc2)c2c(N)ncnc21` (stereo not shown) [Compound 263, N-(2-(4-amino-3-(4-phenoxyphenyl)-1H-pyrazolo[3,4-d]pyrimidin-1-yl)cyclohexyl)-N-methyl-1H-1,2,4-triazole-1-carboxamide], the IC50 in experiment [1] and in experiment [2] was no more than 1 µM each time.
In the case of `NC(=O)c1c(-c2ccc(Oc3ccccc3)cc2)nn2c1NCC[C@H]2[C@H]1CCCCN1C(=O)n1cncn1` [Compound 266, (S)-7-((R)-1-(1H-1,2,4-triazole-1-carbonyl)piperidin-2-yl)-2-(4-phenoxyphenyl)-4,5,6,7-tetrahydropyrazolo[1,5-a] pyrimidine-3-carboxamide], the half-inhibitory concentration (IC50) in experiment [1] and in experiment [2] was no more than 1 µM in each case.
For `Nc1ncnc2c1c(-c1ccc(Oc3ccccc3)cc1)nn2CC1CCCCN1C(=O)n1cncn1` (stereo not shown) [Compound 267, (2-((4-amino-3-(4-phenoxyphenyl)-1H-pyrazolo[3,4-d]pyrimidin-1-yl)methyl)piperidin-1-yl)(1H-1,2,4-triazol-1-yl)methanone], the half-inhibitory concentration (IC50) in experiment [1] and in experiment [2] was no more than 1 µM throughout.
On to `COc1ccc(F)cc1C(=O)NCc1ccc(-c2nn(C(Cc3ccccn3)CN(C)C(=O)n3cncn3)c3ncnc(N)c23)cc1` (stereo not shown) [Compound 268, N-(2-(4-amino-3-(4-((5-fluoro-2-methoxybenzamido)methyl)phenyl)-1H-pyrazolo[3,4-d]pyrimidin-1-yl)-3-(pyridin-2-yl)propyl)-N-methyl-1H-1,2,4-triazole-1-carboxamide], for which the IC50 in experiment [1] and in experiment [2] was greater than 1 µM each time.
For the molecule `COc1ccc(F)cc1C(=O)NCc1ccc(-c2nn([C@H]3CC[C@@H](N(C)C(=O)n4cncn4)C3)c3ncnc(N)c23)cc1` [Compound 269, N-((1R,3S)-3-(4-amino-3-(4-((5-fluoro-2-methoxybenzamido)methyl)phenyl)-1H-pyrazolo [3,4-d]pyrimidin-1-yl)cyclopentyl)-N-methyl-1H-1,2,4-triazole-1-carboxamide], the IC50 in experiment [1] and in experiment [2] was no more than 1 µM in each case.
As for `COc1ccc(F)cc1C(=O)NCc1ccc(-c2nn(CC3CN(C(=O)n4cncn4)C3)c(N)c2C(N)=O)cc1` [Compound 270, 1-((1-(1H-1,2,4-triazole-1-carbonyl)azetidin-3-yl)methyl)-5-amino-3-(4-((5-fluoro-2-methoxybenzamido)methyl)phenyl)-1H-pyrazole-4-carboxamide], the half-inhibitory concentration (IC50) in experiment [1] and in experiment [2] was no more than 1 µM throughout.
Take `COc1ccc(F)cc1C(=O)NCc1ccc(-c2nn(CC3C(C)CCCN3C(=O)n3cncn3)c3ncnc(N)c23)cc1` (stereo not shown) [Compound 271, N-(4-(4-amino-1-((3-methyl-1-(1H-1,2,4-triazole-1-carbonyl)piperidin-2-yl)methyl)-1H-pyrazolo[3,4-d]pyrimidin-3-yl)benzyl)-5-fluoro-2-methoxybenzamide]: the IC50 in experiment [1] and in experiment [2] was greater than 1 µM each time.
`CN(C(=O)n1cncn1)C1CCC2C(CNc3c(C(N)=O)c(-c4ccc(Oc5ccccc5)cc4)nn32)C1` (stereo not shown) [Compound 272, 7-(N-methyl-1H-1,2,4-triazole-1-carboxamido)-2-(4-phenoxyphenyl)-4,5,5a,6,7,8,9,9a-octahydropyrazolo [1,5-a]quinazoline-3-carboxamide]: the 50% inhibitory concentration (IC50) in experiment [1] and in experiment [2] was no more than 1 µM throughout.
For the molecule `COc1ccc(C)cc1C(=O)NCc1ccc(-c2nn(C3CCC(N(C)C(=O)n4cnnn4)C3)c3ncnc(N)c23)cc1` (stereo not shown) [Compound 273, N-(3-(4-amino-3-(4-((2-methoxy-5-methylbenzamido)methyl)phenyl)-1H-pyrazolo[3,4-d]pyrimidin-1-yl)cyclopentyl)-N-methyl-1H-tetrazole-1-carboxamide], the IC50 in experiment [1] and in experiment [2] was no more than 1 µM in each case.
As to `COc1ccc(F)cc1C(=O)NCc1ccc(-c2nn(C[C@@H]3CCCCN3C(=O)n3cncn3)c3ncnc(N)c23)cc1` [Compound 274, (S)-N-(4-(1-((1-(1H-1,2,4-triazole-1-carbonyl)piperidin-2-yl)methyl)-4-amino-1H-pyrazolo[3,4-d]pyrimidin-3-yl)benzyl)-5-fluoro-2-methoxybenzamide], the half-maximal inhibitory concentration (IC50) in experiment [1] and in experiment [2] was no more than 1 µM each time.
Regarding `COc1ccc(C)cc1C(=O)NCc1ccc(-c2nn(C3CCC(N(C)C(=O)n4cncn4)C3)c3ncnc(N)c23)cc1` (stereo not shown) [Compound 275, N-(3-(4-amino-3-(4-((2-methoxy-5-methylbenzamido)methyl)phenyl)-1H-pyrazolo[3,4-d]pyrimidin-1-yl)cyclopentyl)-N-methyl-1H-1,2,4-triazole-1-carboxamide], the IC50 in experiment [1] and in experiment [2] was no more than 1 µM each time.
On to `COc1ccc(F)cc1C(=O)NCc1ccc(-c2nn(-c3cc(N(C)C(=O)n4cncn4)ccc3C)c3ncnc(N)c23)cc1` [Compound 276, N-(3-(4-amino-3-(4-((5-fluoro-2-methoxybenzamido)methyl)phenyl)-1H-pyrazolo[3,4-d]pyrimidin-1-yl)-4-methylphenyl)-N-methyl-1H-1,2,4-triazole-1-carboxamide], for which the IC50 in experiment [1] is no more than 1 µM; in experiment [2] it was greater than 1 µM.
In the same order, the values of `NC(=O)c1nn2c(C3CCCCN3C(=O)n3cncn3)ccnc2c1-c1ccc(Oc2ccccc2)cc1` (stereo not shown) [Compound 277, 7-(1-(1H-1,2,4-triazole-1-carbonyl)piperidin-2-yl)-3-(4-phenoxy-phenyl)pyrazolo[1,5-a]pyrimidine-2-carboxamide] are greater than 1 µM and greater than 1 µM.
In the same order, the values of `COc1ccc(F)cc1C(=O)NCc1ccc(-c2nn(C(C)CC3CCCN3C(=O)n3cncn3)c3ncnc(N)c23)cc1` (stereo not shown) [Compound 279, N-(4-(1-(1-(1-(1H-1,2,4-triazole-1-carbonyl)pyrrolidin-2-yl)propan-2-yl)-4-amino-1H-pyrazolo[3,4-d]pyrimidin-3-yl)benzyl)-5-fluoro-2-methoxybenzamide] are greater than 1 µM and greater than 1 µM.
On to `NC(=O)c1c(-c2ccc(Oc3ccccc3)cc2)nn2c1NCCC2[C@@H]1CCCN1C(=O)n1cncn1` (stereo partly drawn) [Compound 280, 7-((S)-1-(1H-1,2,4-triazole-1-carbonyl)pyrrolidin-2-yl)-2-(4-phenoxyphenyl)-4,5,6,7-tetrahydropyrazolo[1,5-a] pyrimidine-3-carboxamide], for which the 50% inhibitory concentration (IC50) in experiment [1] is greater than 1 µM; in experiment [2], no more than 1 µM.
Taken in the same sequence, the figures for `COc1ccc(F)cc1C(=O)NCc1ccc(-c2nn(C(Cc3ccncc3)CN(C)C(=O)n3cncn3)c3ncnc(N)c23)cc1` (stereo not shown) [Compound 281] were greater than 1 µM and greater than 1 µM.
In the same order, the values of `NC(=O)c1c(-c2ccc(Oc3ccccc3)cc2)nn2c1NCCC2C1CCN(C(=O)n2cncn2)C1` (stereo not shown) [Compound 282, 7-(1-(1H-1,2,4-triazole-1-carbonyl)pyrrolidin-3-yl)-2-(4-phenoxyphenyl)-4,5,6,7-tetrahydropyrazolo[1,5-a] pyrimidine-3-carboxamide] are no more than 1 µM and no more than 1 µM.
Taken in the same sequence, the figures for `COC[C@@H](C1CCNc2c(C(N)=O)c(-c3ccc(Oc4ccccc4)cc3)nn21)N(C)C(=O)n1cncn1` (stereo partly drawn) [Compound 285, 7-((R)-2-methoxy-1-(N-methyl-1H-1,2,4-triazole-1-carboxamido)ethyl)-2-(4-phenoxyphenyl)-4,5,6,7-tetrahydropyrazolo [1,5-a]pyrimidine-3-carboxamide] were greater than 1 µM and greater than 1 µM.
Take `COc1ccc(F)cc1C(=O)NCc1ccc(-c2nn(CCCN(C(=O)n3cncn3)C3CC3)c3ncnc(N)c23)cc1` [Compound 287, N-(3-(4-amino-3-(4-((5-fluoro-2-methoxybenzamido)methyl)phenyl)-1H-pyrazolo[3,4-d]pyrimidin-1-yl)propyl)-N-cyclopropyl-1H-1,2,4-triazole-1-carboxamide]: the IC50 in experiment [1] and in experiment [2] was no more than 1 µM throughout.
`NC(=O)c1c(-c2ccc(Oc3ccccc3)cc2)nn2c1NCC1CCN(C(=O)n3cncn3)CC12` (stereo not shown) [Compound 288, 2-(4-phenoxyphenyl)-8-(1H-1,2,4-triazole-1-carbonyl)-4,5,5a,6,7,8,9,9a-octahydropyrazolo[1,5-a]pyrido [4,3-e]pyrimidine-3-carboxamide]: the IC50 in experiment [1] and in experiment [2] was no more than 1 µM throughout.
